Measured values reported in patent US5066489A (Cetus Corporation, priority 1990, dated 1991).

Assays:
[1] = DTIC pharmacokinetics in patients (first two cycles, 12 patients); format: in vivo, human; conditions: effect of IL-2; first two cycles in 12 patients
Procedure: (§1) For the First Cycle--Patients were admitted to the hospital on a Sunday evening for a Hickman catheter placement on the succeeding Monday. On Day 1 (Tuesday), DTIC was administered by continuous 24 hour infusion at a dose of 1.0 gm/m^2 intravenously. Pharmacokinetic studies were performed on Days 1 and 2.
DTIC pharmokinetics were performed on the first two cycles in 12 patients.

[2] = Phase I-II study of IL-2 plus DTIC in melanoma patients: toxicity; format: in vivo, human; conditions: DTIC 1.0 gm/m^2 24 h infusion
Procedure: Patients, between 18 to 70 years of age, were admitted for three, separate Phase I-II studies. Each patient had to meet the following criteria for entering the study:
1. Dose and Schedule--Twenty patients received three cycles of Interleukin-2 in combination with DTIC. Each cycle was 28 days in duration. All drugs were administered by hospital staff either while in-patient or in the out-patient clinic. Patients received 1.0 gm/m^2 of DTIC as an IV continuous infusion over 24 hours every 4 weeks.
as §1
The dose schedule was identical to that given for cycle two.

metastatic melanoma = conditions: cited from earlier work
[3] = cited from earlier work

SMILES	peak plasma levels [1]	dosage adjustments for nausea/vomiting or for myelosuppression [2]	mild nausea and vomiting ([2]; of the courses) [%]	antitumor schedule dependency (metastatic melanoma; DTIC dose regimens)	single agent response rate (metastatic melanoma; Roth and Kirkwood (1987)) [%]	most promising response rate (%) observed alone (metastatic melanoma; complete plus partial responses, treatment of melanoma, Roth (DTIC), Rosenberg et al 1987 (IL-2))	dose responses (metastatic melanoma; five-day continuous infusions)	responsiveness of visceral metastases (gastrointestinal tract, liver, brain) (metastatic melanoma; versus soft tissue disease)	hematologic and GI toxicities ([3]; DTIC dose regimen)	acute toxicity ([3]; five-day continuous infusions)
CN(C)N=Nc1[nH]cnc1C(N)=O [DTIC, dimethyl-triazeno-imidazole-carboxmide]	not altered by IL-2	required no dosage adjustments	96	has not been observed	24	approximately 24%	equivalent dose responses	relatively less responsive than soft tissue disease	vary with the DTIC dose regimen used	least acute toxicity
NC(=O)c1[nH]cnc1N [AIC, 5-aminoimidazole 4-carboxamide]	not altered by IL-2	–	–	–	–	–	–	–	–	–
